From patent US12576070B2, “Medicine for improving state of pregnancy, and use thereof” (priority 2014, dated 2026)
Entries after “also recorded” stand apart in the source; their conditions may differ.

Test system: repeated implantation failure (RIF) patients with elevated Th1/Th2 cell ratios
Test: Tacrolimus treatment of repeated implantation failure (RIF) patients during IVF/ET, prospective cohort study (Example 1)
Assay type: in vivo, human
Description: This was a prospective cohort study of treatment for RIF patients (n=42) with elevated peripheral blood Th1 (CD4^+/IFN-γ^+)/Th2 (CD4^+/IL-4^+) cell ratios at the Sugiyama clinic between November 2011 and October 2013. Twenty-five patients were treated with tacrolimus (treatment group) and 17 received no treatment (control group).
Treatment group continuously received tacrolimus from two days before embryo transfer until the day of the pregnancy test, for a total of 16 days. The daily dose of tacrolimus (1-3 mg) was determined based on the degree of the Th1/Th2 cell ratio.
A total of 81 patients with a history of 5 or more RIF after IVF/ET cycles were consecutively enrolled in the study at the division of Reproductive Medicine, the Sugiyama clinic, Tokyo, Japan, between November 2011 and February 2014. This study was approved by the Institutional Review Board of the Sugiyama Clinic. A signed informed consent form was obtained from all patients prior to entering the study.
Study patients were assessed by transvaginal ultrasound, hysterosalpingography, and hysteroscopy before the index ART cycle. None of the participants had submucosal fibroids, endometrial polyps, intrauterine adhesions, congenital anomalies of uterus or hydrosalpinges. In addition, none of the women had any history of autoimmune disease. Pregnant women or women with chronic medical or inflammatory conditions were excluded. Women who miscarried in a former IVF cycle or had IVF cycles, or received vaccination in 3 months were excluded in the study. Women with acquired or inherited thrombophilia were also excluded in this study.
Blood was drawn between cycle day (CD) 5 and 10 prior to the index ART cycle for the evaluation of a baseline value of Th1/Th2 cell ratios. Forty-two patients had elevated Th1/Th2 cell ratio (≥10.3) and 39 had normal Th1/Th2 cell ratio (≤10.3). […] Blood was drawn between CD5 and CD10 of the menstrual cycle. A Th1/Th2 cell ratio equal to 10.3 or above was classified as an elevated Th1/Th2 cell ratio, which was determined by the mean plus one standard deviation of Th1/Th2 cell ratio levels.
For the evaluation of a baseline value of Th1/Th2 cell ratios, total 10 ml of venous blood was obtained. Th1 and Th2 cells were determined by detecting the intracellular interferon (IFN)-γ and IL-4 production.
The specific staining of lymphocytes was performed by incubating whole blood with anti-CD4-PC5 or anti-CD8-PC5-conjugated monoclonal antibodies (mAbs) (Beckman Coulter, Fullerton, Calif, USA). The red blood cells (RBCS) were then removed by lysis (FACS Lysing solution; Becton Dickinson, BD Biosciences, Franklin Lake. N.J., USA) and the lymphocytes were analyzed using flow cytometry (FACSCalibur; Becton Dickson). After surface staining of the activated whole blood samples with anti-CD4-PC5 conjugated mAbs, RBC lysis and specific intracellular staining using FASTIMMUNE™ IFN-γ-FITC/IL-4-PE (Becton Dickinson) were subsequently performed according to the manufacturer's instructions. Th1 cells were defined as CD4^+ lymphocytes with intracellular IFN-γ but without IL-4. Th2 cells were detected as CD4^+ lymphocytes with intracellular IL-4 but without IFN-γ. The ratio of IFN-γ to IL-4 positive Th cells was expressed as the Th1/Th2 cell ratio.
In 42 patients with elevated Th1/Th2 cytokine ratios (equal or above 10.3), 25 of them were treated with tacrolimus (PROGRAF®, Astellas Pharma, Tokyo; treatment group), and the others (n=17) were not treated (control group) during the index IVF/ET cycles. The patients in the treatment group began tacrolimus two days prior to ET and continued until the day of pregnancy test, for a total of 16 days. […]

[1] = 1 mg daily, n = 12, Th1/Th2 cell ratio ≥10.3 and <13.0
[2] = 2 mg daily, n = 8, Th1/Th2 cell ratio ≥13.0 and <15.8
[3] = 3 mg daily, n = 5, Th1/Th2 cell ratio ≥15.8
[4] = treatment group n = 25, tacrolimus 1-3 mg daily for 16 days
[5] = treatment group, 15 newborns, mean ± standard deviation
[6] = treatment group, 15 newborns, mean ± standard deviation, listed as tacrorimus

Compound: C=CCC1/C=C(\C)CC(C)CC(OC)C2OC(O)(C(=O)C(=O)N3CCCCC3C(=O)OC(/C(C)=C/C3CCC(O)C(OC)C3)C(C)C(O)CC1=O)C(C)CC2OC (stereo not drawn) [tacrolimus, 17-Allyl-1,14-dihydroxy-12-[2-(4-hydroxy-3-methoxycyclohexyl)-1-methylvinyl]-23,2 5-dimethoxy-13,19,21,27-tetramethyl-11,28-dioxa-4-azatricyclo[22.3.1.04,9]octacos-18-ene-2,3,10,16-tetraone]
- Clinical pregnancy with 1 mg of tacrolimus (%) [1]: 83.3%
- Live birth with 1 mg of tacrolimus (%) [1]: 83.3%
- Clinical pregnancy With 2 mg of tacrolimus [2]: 50.0%
- Live birth With 2 mg of tacrolimus [2]: 37.5%
- Clinical pregnancy with 3 mg of tacrolimus [3]: 40.0%
- Live birth with 3 mg of tacrolimus [3]: 40.0%
- FET success rate relative to reported success rate (39%) of women under 35 (FET cycle with tacrolimus, 75% versus 2011 CDC report 39%): 1.9 times
- Positive hCG (%) (RIF patients with elevated Th1/Th2 cell ratio, treatment group n = 25, tacrolimus 1-3 mg daily for 16 days from two days before ET): 64%
- birth weight (mean±SD) (newborns of the treatment group, as given in the text): 2,995±400 g
- Spontaneous abortion rate (%) (pregnant patients of the treatment group, one miscarriage at 10 weeks gestation): 6.3%
- Side effect from tacrolimus (treatment group n = 25, 1-3 mg daily for 16 days): no significant side effect; also recorded: no one reported side effect
- Clinical pregnancy rate per ET (%) [4]: 64.0%
- Live birth rate (%) [4]: 60%
- Implantation rate (%) (treatment group n = 25, tacrolimus 1-3 mg daily for 16 days from two days before ET, 16/35): 45.7%
- APGAR score at 1 minutes after birth [5]: 8.3±0.5
- APGAR score at 5 minutes after birth [5]: 9.2±0.5
- Gestational days to delivery [5]: 279.5 ± 10.6 days
- Umbilical cord gas analysis (pH) [5]: 7.2 ± 0.05 pH
- Birth weight (gm) (treatment group, 15 newborns, mean ± standard deviation (Table 4)): 3,021 ± 371 gm
- APGAR score at 1 minutes after birth [6]: 8.3 ± 0.5
- APGAR score at 5 minutes after birth [6]: 9.2 ± 0.6
- Gestational days to delivery [6]: 279.5 ± 10.6 days
- Live birth rate of fresh ET (%) (treatment group, fresh ET (n = 9)): 33.3%
- Clinical pregnancy of fresh ET (%) (treatment group, fresh ET (n = 9), tacrolimus 1-3 mg daily for 16 days): 44.4%
- Live birth rate of thawed ET (%) (treatment group, frozen-thawed ET (n = 16)): 75%
- Clinical pregnancy of cryo-thaw ET (%) (treatment group, frozen-thawed ET (n = 16), tacrolimus 1-3 mg daily for 16 days): 75%
- Number of newborns (women with multiple implantation failures (5 or more) treated with tacrolimus): 15
